Test results: patent publication US20150099800A1, “NOVEL LIPASE INHIBITORS, REPORTER SUBSTRATES AND USES THEREOF” (Northeastern University, priority 2012, published 2015)
Where two headings read alike, the source gives them in different places. One block for each compound: values may come before it.

Legend:
MAGL [1] = molecular target: T1, MAGL (Homo sapiens, UniProt Q99685); test: hMAGL coumarin substrate fluorescence assay; type: biochemical; parameters: The N-terminal his-tagged full length human monoacylglycerol lipase used; His (N); made in house; host or cells: E. coli
T1 sequence (Q99685 1-303): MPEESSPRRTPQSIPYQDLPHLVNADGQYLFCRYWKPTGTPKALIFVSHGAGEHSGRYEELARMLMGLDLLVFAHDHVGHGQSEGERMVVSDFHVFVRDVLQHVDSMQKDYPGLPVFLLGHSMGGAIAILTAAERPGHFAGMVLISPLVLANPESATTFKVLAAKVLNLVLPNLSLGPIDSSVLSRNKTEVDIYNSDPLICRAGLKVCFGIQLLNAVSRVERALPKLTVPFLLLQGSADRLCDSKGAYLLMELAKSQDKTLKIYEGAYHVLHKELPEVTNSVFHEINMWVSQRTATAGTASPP

rFAAH = molecular target: T2, rFAAH (Rattus norvegicus, UniProt P97612); test: rFAAH coumarin substrate fluorescence assay; type: biochemical
T2 construct: His (N); made in house; host or cells: E. coli (cell line provided by the Cravatt group)
T2 sequence (P97612 30-579 limits assumed): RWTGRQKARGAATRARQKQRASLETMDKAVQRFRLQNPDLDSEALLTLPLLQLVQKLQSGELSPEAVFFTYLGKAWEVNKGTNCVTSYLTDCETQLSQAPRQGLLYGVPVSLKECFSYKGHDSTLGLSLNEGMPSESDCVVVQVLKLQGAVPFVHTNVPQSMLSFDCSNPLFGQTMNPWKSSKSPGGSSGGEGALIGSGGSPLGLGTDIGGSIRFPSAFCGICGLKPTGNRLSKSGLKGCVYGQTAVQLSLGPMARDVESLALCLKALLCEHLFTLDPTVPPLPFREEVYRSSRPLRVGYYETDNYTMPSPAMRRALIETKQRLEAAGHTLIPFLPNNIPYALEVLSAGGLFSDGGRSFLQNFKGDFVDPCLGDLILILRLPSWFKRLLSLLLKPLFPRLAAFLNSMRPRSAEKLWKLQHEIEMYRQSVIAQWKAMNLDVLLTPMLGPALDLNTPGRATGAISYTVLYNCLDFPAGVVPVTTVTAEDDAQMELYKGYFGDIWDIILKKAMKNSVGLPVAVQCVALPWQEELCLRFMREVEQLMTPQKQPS

MAGL [2] = molecular target: T1, MAGL; conditions: cited from earlier work
cannabinoid receptors = conditions: cited from earlier work
[3] = system: pancreatic and extrapancreatic fat necrosis; conditions: literature, cited from earlier work
hDAGLα [4] = molecular target: T3, hDAGLα (Homo sapiens, UniProt Q9Y4D2); test: biochemical; conditions: read-out: hDAGLα inhibition at 10 μM TLC (with Triton X-100) (%), 10 μM; 0.05% Triton X-100 present
T3 sequence (Q9Y4D2 1-1042): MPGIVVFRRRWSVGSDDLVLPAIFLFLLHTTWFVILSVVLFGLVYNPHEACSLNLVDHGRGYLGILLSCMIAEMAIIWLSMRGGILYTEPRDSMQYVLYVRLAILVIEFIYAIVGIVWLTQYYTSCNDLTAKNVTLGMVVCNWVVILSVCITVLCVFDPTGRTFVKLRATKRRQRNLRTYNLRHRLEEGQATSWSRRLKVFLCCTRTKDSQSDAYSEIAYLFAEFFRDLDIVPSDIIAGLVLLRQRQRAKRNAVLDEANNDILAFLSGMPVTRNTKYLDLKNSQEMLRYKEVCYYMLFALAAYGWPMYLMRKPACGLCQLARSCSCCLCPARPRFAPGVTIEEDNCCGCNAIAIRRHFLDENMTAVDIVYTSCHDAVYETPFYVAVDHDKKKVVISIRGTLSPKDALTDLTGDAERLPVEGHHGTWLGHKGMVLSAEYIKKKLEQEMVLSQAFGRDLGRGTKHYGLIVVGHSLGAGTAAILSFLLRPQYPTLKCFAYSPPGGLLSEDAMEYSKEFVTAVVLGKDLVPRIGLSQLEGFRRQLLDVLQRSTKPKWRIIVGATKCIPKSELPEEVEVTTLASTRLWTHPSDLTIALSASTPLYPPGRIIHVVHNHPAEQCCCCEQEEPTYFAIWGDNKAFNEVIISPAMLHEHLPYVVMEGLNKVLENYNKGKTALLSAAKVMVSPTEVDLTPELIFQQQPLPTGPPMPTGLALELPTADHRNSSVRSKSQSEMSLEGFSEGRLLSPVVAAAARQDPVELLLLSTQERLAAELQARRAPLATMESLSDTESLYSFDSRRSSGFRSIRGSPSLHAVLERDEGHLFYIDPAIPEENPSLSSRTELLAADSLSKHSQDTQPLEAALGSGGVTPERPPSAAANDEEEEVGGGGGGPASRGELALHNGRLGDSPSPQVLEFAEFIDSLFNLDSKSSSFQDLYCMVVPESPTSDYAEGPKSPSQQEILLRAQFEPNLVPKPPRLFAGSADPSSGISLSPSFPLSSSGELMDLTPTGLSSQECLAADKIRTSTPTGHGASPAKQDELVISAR

FAAH = conditions: cited from earlier work
[5] = system: Lipoprotein Lipase (Bacterial); type: biochemical, Pseudomonas sp.
hDAGLα [6] = molecular target: T3, hDAGLα
DAGL = conditions: cited from earlier work
[7] = intraperitoneal (IP) injections

Compound: CCCCCCCCCCC[C@@H](C[C@@H]1OC(=O)[C@H]1CCCCCC)OC(=O)[C@H](CC(C)C)NC=O [Compound 3, tetrahydrolipstatin]
inhibition at 10 µM (MAGL [1]; read-out: hMAGL inhibition at 10 μM (%)): 47% | inhibition at 10 µM (rFAAH; read-out: rFAAH inhibition at 10 μM (%)): 6% | inhibition of MAGL activity reported in the literature (MAGL [2]; literature): poor inhibitors | binding to the cannabinoid receptors, previous reports (cannabinoid receptors; literature): did not bind | effect on concentration of free fatty acid in the blood [3, 7]: no effect | lowering of lipase activity in the blood [3, 7]: small effect | prevention of pancreatic and extrapancreatic fat necrosis ([3]; rodents): not effective | inhibition at 10 µM (hDAGLα [4]): 100% | inhibition of FAAH activity reported in the literature (FAAH; literature): poor inhibitors | inhibition of bacterial lipoprotein lipase, FRET ([5]; preliminary studies): potent inhibition | IC50 ([5]; reporter compound (17), read-out: apparent IC50 with lipoprotein lipase, FRET assay): ~100 nM

hMAGL inhibition at 10 μM (%) (MAGL [1]; 10 μM): 39% | hDAGLα inhibition at 10 μM (0.05% Triton X-100) (%), FRET (hDAGLα [6]; 10 μM): 98% | hDAGLα inhibition at 10 μM detergent free (%), FRET (hDAGLα [6]; 10 μM, detergent free): 90% | rFAAH inhibition at 10 μM (%) (rFAAH; 10 μM): 28% | Lipoprotein Lipase (Bacterial) inhibition at 10 μM (%) ([5]; 10 μM): 86%
Compound: CCCCCCCCCCCC(CC1OC(=O)C1CCCCCC)OC(=O)C(NC=O)C(C)CC (stereo not drawn) [Compound 6]

hMAGL inhibition at 10 μM (%) (MAGL [1]; 10 μM): 42% | hDAGLα inhibition at 10 μM (0.05% Triton X-100) (%), FRET (hDAGLα [6]; 10 μM): 98% | hDAGLα inhibition at 10 μM detergent free (%), FRET (hDAGLα [6]; 10 μM, detergent free): 90% | rFAAH inhibition at 10 μM (%) (rFAAH; 10 μM): 0% | Lipoprotein Lipase (Bacterial) inhibition at 10 μM (%) ([5]; 10 μM): 68%
Compound: CCCCCCCCCCC[C@@H](C[C@@H]1OC(=O)[C@H]1CCCCCC)OC(=O)[C@H](NC=O)[C@@H](C)CC [Compound 7]

Compound: O=C(Oc1ccc([N+](=O)[O-])cc1)N1CCC(C(O)(c2ccc3c(c2)OCO3)c2ccc3c(c2)OCO3)CC1 [JZL184]
hMAGL inhibition at 10 μM (%) (MAGL [1]): 100^F % | hDAGLα inhibition at 10 μM detergent free (%), FRET (hDAGLα [6]): 59, 44° % | hDAGLα inhibition at 10 μM detergent free (%), FRET, marker ° (hDAGLα [6]): 59, 44° % | rFAAH inhibition at 10 μM (%) (rFAAH): 97^E % | inhibition of MAGL activity reported in the literature (MAGL [2]): poor inhibitors | binding to the cannabinoid receptors, previous reports (cannabinoid receptors): did not bind | effect on DAGL activity reported in the literature (DAGL): poor inhibitors | inhibition of FAAH activity reported in the literature (FAAH): poor inhibitors | Lipoprotein Lipase (Bacterial) inhibition at 10 μM (%) [5]: 36%
